Earlier results as cited in US20030100464A1, “Dishwashing compositions containing alkylbenzenesulfonate surfactants” (priority 2001, published 2003).

B1: D96L: D96L lipolytic enzyme variant of the native lipase derived from Humicola lanuginosa (protein, UniProt O59952 23-291, looked up, variant D96L)
Lipase: EVSQDLFNQFNLFAQYSAAAYCGKNNDAPAGTNITCTGNACPEVEKADATFLYSFEDSGVGDVTGFLALDNTNKLIVLSFRGSRSIENWIGNLNFLLKEINDICSGCRGHDGFTSSWRSVADTLRQKVEDAVREHPDYRVVFTGHSLGGALATVAGADLRGNGYDIDVFSYGAPRVGNRAFAEFLTVQTGGTLYRITHTNDIVPRLPPREFGYSHSSPEYWIKSGTLVPVTRNDIVKIEGIDATGGNNQPNIPDIPAHLWYFGLIGTCL

How the values were obtained:
[1] = all-aqueous solution at 25° C., ionic strength 0.1 to 0.5 M
[2] = enzymes compared at 0.075 to 2.5 mg protein per liter

improvement of lard stain removal efficiency, factor over the wild-type lipase [2] | Molecule | pK1 [1] | pK2 [1]
 | NCCCN [1,3 propane diamine] | 10.5 | 8.8
 | NCCCCCCN [1,6 hexane diamine] | 11 | 10
 | CCC(N)CCN (stereo not drawn) [1,3 pentane diamine] | 10.5 | 8.9
 | CC(CN)CCCN (stereo not drawn) [2-methyl 1,5 pentane diamine] | 11.2 | 10.0
4.4 | B1 |  | 
